{"source": "ChEMBL document CHEMBL5331053", "about": "“Defining the structure-activity relationship for a novel class of allosteric MKP5 inhibitors” (Eur J Med Chem, 2022)", "key": {"[1]": {"molecular_target": "T1, Dual specificity protein phosphatase 10 (Homo sapiens, UniProt Q9Y6W6)", "T1 sequence (Q9Y6W6 whole entry)": "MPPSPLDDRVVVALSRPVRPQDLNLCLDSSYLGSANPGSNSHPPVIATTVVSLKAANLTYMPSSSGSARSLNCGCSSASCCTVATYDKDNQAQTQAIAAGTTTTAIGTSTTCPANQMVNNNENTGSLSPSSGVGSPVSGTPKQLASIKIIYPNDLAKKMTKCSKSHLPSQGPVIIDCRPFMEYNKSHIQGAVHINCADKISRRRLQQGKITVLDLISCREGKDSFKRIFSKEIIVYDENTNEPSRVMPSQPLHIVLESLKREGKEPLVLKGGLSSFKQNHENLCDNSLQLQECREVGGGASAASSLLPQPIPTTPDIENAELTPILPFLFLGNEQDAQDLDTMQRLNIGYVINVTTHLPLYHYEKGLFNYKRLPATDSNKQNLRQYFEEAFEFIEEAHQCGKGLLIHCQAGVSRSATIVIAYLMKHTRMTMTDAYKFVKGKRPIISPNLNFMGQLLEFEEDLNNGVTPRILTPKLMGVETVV", "assay": "Inhibition of MKP5 catalytic domain (unknown origin) expressed in Escherichia coli BL21 (DE3) cells assessed as p38alpha MAPK phosphopeptide dephosphorylation using phosphopeptide as substrate incubated for 15 mins followed by substrate addition by malachite green dye based analysis"}, "[2]": {"molecular_target": "T1, Dual specificity protein phosphatase 10", "assay": "Inhibition of human MKP5 catalytic domain (320 to 467 residues) expressed in Escherichia coli BL21 (DE3) cells by MST assay"}}, "data": [{"compound": "CSc1scc2c1-c1nc(SCC(=O)C(C)(C)C)ncc1CC2", "values": [{"measurement": "IC50", "setting": "[1]", "value": 2.8, "unit": "µM"}, {"measurement": "IC50", "setting": "[2]", "value": 3.8, "unit": "µM"}]}, {"compound": "CCc1csc2c1-c1nc(SCC(=O)C(C)(C)C)ncc1CC2", "values": [{"measurement": "IC50", "setting": "[1]", "value": 5, "unit": "µM"}]}, {"compound": "Cc1ccc2c(c1)-c1nc(SCC(=O)C(C)(C)C)ncc1CC2", "values": [{"measurement": "IC50", "setting": "[1]", "value": 7.5, "unit": "µM"}]}, {"compound": "CC(C)(C)C(=O)CSc1ncc2cnc3ccccc3c2n1", "values": [{"measurement": "IC50", "setting": "[1]", "value": 59, "unit": "µM"}]}, {"compound": "CCN(C)C(=O)CSc1ncc2c(n1)-c1c(csc1SC)CC2", "values": [{"measurement": "IC50", "setting": "[1]", "value": 81, "unit": "µM"}]}, {"compound": "CC(C)(C)C(=O)CSc1nccc(-c2cccnc2)n1", "values": [{"measurement": "IC50", "setting": "[1]", "value": 100, "unit": "µM"}]}, {"compound": "CC(C)(C)C(=O)CSc1ncc2c(n1)-c1cccnc1CC2", "values": [{"measurement": "IC50", "setting": "[1]", "value": 76, "unit": "µM"}]}, {"compound": "CC(C)(C)C(=O)CSc1ncc2c(n1)-c1cc(Cl)ccc1CC2", "values": [{"measurement": "IC50", "setting": "[1]", "value": 4, "unit": "µM"}]}, {"compound": "CC(=O)N1Cc2cnc(SCC(=O)C(C)(C)C)nc2-c2ccccc21", "values": [{"measurement": "IC50", "setting": "[1]", "value": 150, "unit": "µM"}]}, {"compound": "CC(C)(C)C(=O)CSc1ncc2c(n1)-c1ccccc1CC2", "values": [{"measurement": "IC50", "setting": "[1]", "value": 6.2, "unit": "µM"}]}, {"compound": "CC(C)(C)C(=O)CSc1ncc2c(n1)-c1ccsc1CC2", "values": [{"measurement": "IC50", "setting": "[1]", "value": 7.1, "unit": "µM"}]}, {"compound": "CC(C)(C)C(=O)CSc1nccc(-c2ccccc2)n1", "values": [{"measurement": "IC50", "setting": "[1]", "value": 27, "unit": "µM"}]}, {"compound": "CCCc1csc2c1-c1nc(SCC(=O)C(C)(C)C)ncc1CC2", "values": [{"measurement": "IC50", "setting": "[1]", "value": 11, "unit": "µM"}]}]}
